Experimental data taken from patent publication US9309248B2, “Azaindolines” (Hoffmann-La Roche Inc., priority 2012, dated 2016).

How the values were obtained:
BIR2 domain of XIAP = biological target: T1, BIR2 domain of XIAP (Homo sapiens, UniProt P98170, C202A/C213G); test: TR-FRET assay for BIR2 (inhibition of binding of XIAP BIR2 domain to SMAC-derived Peptide A); settings: 6x Histidine-tagged BIR2 domain (amino acids 124-240 of XIAP) 10 nM, Peptide A 20 nM
T1 construct: 6× Histidine-tagged BIR2 domain, corresponding to amino acids 124-240 of XIAP
T1 sequence (P98170 with tags, fused parts or gaps C202A/C213G): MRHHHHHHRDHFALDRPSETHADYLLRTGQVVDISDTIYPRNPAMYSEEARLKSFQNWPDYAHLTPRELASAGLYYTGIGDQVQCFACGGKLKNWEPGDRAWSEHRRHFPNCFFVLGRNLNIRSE
Description: (§1) TR-FRET Assay for BIR2 and BIR3
(§2) The ability of a test compound to inhibit the binding of BIR2 and/or BIR3 domains of the XIAP protein to Peptide A (a SMAC-derived peptide described below) evidences that the test compound acts as a SMAC-mimetic resulting in reactivation of a cell's apoptotic pathway.
(§3) The peptides were labeled with the fluorescent tags FITC or TAMRA and Kd values were determined by fluorescence polarization assay. […] The peptide sequence was derivatized with biotin to provide […]-(ε-biotin)-OH 1:2 TFA as the substrate for the TR-FRET assay.
The XIAP protein sequence was obtained from the SWISS-PROT protein sequence database and the BIR2 and BIR3 domains were derived from that. The sequence of the BIR2 domain used for the TR-FRET assay is […].
Time-resolved fluorescence resonance energy transfer (TR-FRET) signals were measured 1 hour later at room temperature. Test compound potency was assessed at 10 serially diluted concentrations. Percentage of inhibition at each concentration was determined to generate an IC50 value for each test compound.

BIR3 domain of XIAP = biological target: T2, BIR3 domain of XIAP (Homo sapiens, UniProt P98170); test: TR-FRET assay for BIR3 (inhibition of binding of XIAP BIR3 domain to SMAC-derived Peptide A); settings: 6x Histidine-tagged BIR3 domain (amino acids 241-356 of XIAP) 10 nM, Peptide A 20 nM
T2 construct: BIR3 domain, corresponding to amino acids 241-356 of XIAP
T2 sequence (P98170 with tags, fused parts or gaps): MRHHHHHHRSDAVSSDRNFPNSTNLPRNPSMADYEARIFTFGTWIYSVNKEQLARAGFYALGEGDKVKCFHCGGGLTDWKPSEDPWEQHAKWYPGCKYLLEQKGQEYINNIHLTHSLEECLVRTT
Description: as §1, §2, §3
The sequence of the BIR3 domain used for the TR-FRET assay is […]
Ten nanomolar of 6× Histidine-tagged BIR2 domain, corresponding to amino acids 124-240 of XIAP, or BIR3 domain, corresponding to amino acids 241-356 of XIAP, was mixed with 20 nM of the peptide […]-(z-biotin)-OH 1:2 TFA, in the presence of 50 mM Tris-Cl, pH 7.5, 100 mM NaCl, 1 mM dithiothreitol (DTT) and 0.1 mg/mL bovine serum albumin (BSA). Following a […] incubation at 37° C., Europium-Streptavidin and Allophycocyanin conjugated anti-Histidine antibody were added to a final concentration of 1.5 nM and 15 nM, respectively. Time-resolved fluorescence resonance energy transfer (TR-FRET) signals were measured 1 hour later at room temperature. Test compound potency was assessed at 10 serially diluted concentrations. Percentage of inhibition at each concentration was determined to generate an IC50 value for each test compound.

Row | Structure (SMILES) | IC50 (BIR2 domain of XIAP) [nM] | IC50 (BIR3 domain of XIAP) [nM]
1 | CN[C@@H](C)C(=O)N[C@H](C(=O)N1c2ncccc2C[C@H]1C(=O)Nc1c(C)cccc1C)C(C)C [Example 33, (S)-1-[(S)-3-Methyl-2-((S)-2-methylamino-propionylamino)-butyryl]-2,3-dihydro-1H-pyrrolo[2,3-b]pyridine-2-carboxylic acid (2,6-dimethyl-phenyl)-amide] | 44.9 | > 54800
2 | CN[C@@H](C)C(=O)N[C@H](C(=O)N1c2ncccc2C[C@H]1c1nc2ccccc2[nH]1)C(C)C [Example 34, (S)—N—{(S)-1-[(S)-2-(1H-Benzoimidazol-2-yl)-2,3-dihydro-pyrrolo[2,3-b]pyridine-1-carbonyl]-2-methyl-propyl}-2-methylamino-propionamide] | 137 | > 54800
3 | CN[C@@H](C)C(=O)N[C@H](C(=O)N1c2ncccc2C[C@H]1C(=O)Nc1ccccc1F)C(C)C [Example 36, (S)-1-[(S)-3-Methyl-2-((S)-2-methylamino-propionylamino)-butyryl]-2,3-dihydro-1H-pyrrolo[2,3-b]pyridine-2-carboxylic acid (2-fluoro-phenyl)-amide] | 12.7 | > 54800
4 | CN[C@@H](C)C(=O)N[C@H](C(=O)N1c2ncccc2C[C@H]1C(=O)Nc1cnccc1C)C(C)C [Example 38, (S)-1-[(S)-3-Methyl-2-((S)-2-methylamino-propionylamino)-butyryl]-2,3-dihydro-1H-pyrrolo[2,3-b]pyridine-2-carboxylic acid (4-methyl-pyridin-3-yl)-amide] | 237 | > 54800
5 | CN[C@@H](C)C(=O)N[C@H](C(=O)N1c2ncccc2C[C@H]1C(=O)Nc1cccc(F)c1)C(C)C [Example 39, (S)-1-[(S)-3-Methyl-2-((S)-2-methylamino-propionylamino)-butyryl]-2,3-dihydro-1H-pyrrolo[2,3-b]pyridine-2-carboxylic acid (3-fluoro-phenyl)-amide] | 226 | > 54800
6 | CN[C@@H](C)C(=O)N[C@H](C(=O)N1c2ncccc2C[C@H]1C(=O)Nc1ccc(C2CCNCC2)cc1)C(C)C [Example 41, (S)-1-[(S)-3-Methyl-2-((S)-2-methylamino-propionylamino)-butyryl]-2,3-dihydro-1H-pyrrolo[2,3-b]pyridine-2-carboxylic acid (4-piperidin-4-yl-phenyl)-amide] | 701 | > 54800
7 | CN[C@@H](C)C(=O)N[C@H](C(=O)N1c2ncccc2C[C@H]1C(=O)Nc1ccc(C(=O)c2ccccc2)cc1)C(C)C [Example 42, (S)-1-[(S)-3-Methyl-2-((S)-2-methylamino-propionylamino)-butyryl]-2,3-dihydro-1H-pyrrolo[2,3-b]pyridine-2-carboxylic acid (4-benzoyl-phenyl)-amide] | 847 | > 54800
8 | CN[C@@H](C)C(=O)N[C@H](C(=O)N1c2ncccc2C[C@H]1C(=O)Nc1cccc(C)c1C)C(C)C [Example 43, (S)-1-[(S)-3-Methyl-2-((S)-2-methylamino-propionylamino)-butyryl]-2,3-dihydro-1H-pyrrolo[2,3-b]pyridine-2-carboxylic acid (2,3-dimethyl-phenyl)-amide] | 71.1 | > 54800
9 | CN[C@@H](C)C(=O)N[C@H](C(=O)N1c2ncccc2C[C@H]1C(=O)Nc1cc(C)ccc1F)C(C)C [Example 44, (S)-1-[(S)-3-Methyl-2-((S)-2-methylamino-propionylamino)-butyryl]-2,3-dihydro-1H-pyrrolo[2,3-b]pyridine-2-carboxylic acid (2-fluoro-5-methyl-phenyl)-amide] | 3.8 | > 54800
10 | CN[C@@H](C)C(=O)N[C@H](C(=O)N1c2ncccc2C[C@H]1C(=O)Nc1cc(C)cc(C)c1)C(C)C [Example 45, (S)-1-[(S)-3-Methyl-2-((S)-2-methylamino-propionylamino)-butyryl]-2,3-dihydro-1H-pyrrolo[2,3-b]pyridine-2-carboxylic acid (3,5-dimethyl-phenyl)-amide] | 304 | > 54800
11 | CN[C@@H](C)C(=O)N[C@H](C(=O)N1c2ncccc2C[C@H]1C(=O)Nc1ccc(C)cc1F)C(C)C [Example 46, (S)-1-[(S)-3-Methyl-2-((S)-2-methylamino-propionylamino)-butyryl]-2,3-dihydro-1H-pyrrolo[2,3-b]pyridine-2-carboxylic acid (2-fluoro-4-methyl-phenyl)-amide] | 4.04 | > 54800
12 | CN[C@@H](C)C(=O)N[C@H](C(=O)N1c2ncccc2C[C@H]1C(=O)Nc1ccc(S(C)(=O)=O)cc1F)C(C)C [Example 50, (S)-1-[(S)-3-Methyl-2-((S)-2-methylamino-propionylamino)-butyryl]-2,3-dihydro-1H-pyrrolo[2,3-b]pyridine-2-carboxylic acid (2-fluoro-4-methanesulfonyl-phenyl)-amide] | 89.3 | > 54800
13 | CN[C@@H](C)C(=O)N[C@H](C(=O)N1c2ncccc2C[C@H]1C(=O)NCCS(C)(=O)=O)C(C)C [Example 51, (S)-1-[(S)-3-Methyl-2-((S)-2-methylamino-propionylamino)-butyryl]-2,3-dihydro-1H-pyrrolo[2,3-b]pyridine-2-carboxylic acid (2-methanesulfonyl-ethyl)-amide] | 828 | > 54800

The remaining molecules from weak to strong by IC50 (BIR2 domain of XIAP), led by results:

Row | IC50 (BIR2 domain of XIAP) [nM] | IC50 (BIR3 domain of XIAP) [nM] | Structure (SMILES)
14 | 37700 | > 54800 | CN[C@@H](C)C(=O)N[C@H](C(=O)N1c2ncccc2C[C@@H]1c1nc2ccccc2[nH]1)C(C)C [Example 35, (S)—N—{(S)-1-[(R)-2-(1H-Benzoimidazol-2-yl)-2,3-dihydro-pyrrolo[2,3-b]pyridine-1-carbonyl]-2-methyl-propyl}-2-methylamino-propionamide]
15 | 978 | 21500 | CN[C@@H](C)C(=O)N[C@H](C(=O)N1c2ncccc2C[C@H]1C(=O)NC(C)c1ccccc1)C(C)C (stereo partly drawn) [Example 52, (S)-1-[(S)-3-Methyl-2-((S)-2-methylamino-propionylamino)-butyryl]-2,3-dihydro-1H-pyrrolo[2,3-b]pyridine-2-carboxylic acid (1-phenyl-ethyl)-amide]
16 | 740 | > 54800 | CN[C@@H](C)C(=O)N[C@H](C(=O)N1c2ncccc2C[C@H]1C(=O)NCCS(=O)(=O)N(C)C)C(C)C [Example 53, (S)-1-[(S)-3-Methyl-2-((S)-2-methylamino-propionylamino)-butyryl]-2,3-dihydro-1H-pyrrolo[2,3-b]pyridine-2-carboxylic acid (2-dimethylsulfamoyl-ethyl)-amide]
17 | 323 | > 54800 | CN[C@@H](C)C(=O)N[C@H](C(=O)N1c2ncccc2C[C@H]1C(=O)NCC(F)(F)F)C(C)C [Example 37, (S)-1-[(S)-3-Methyl-2-((S)-2-methylamino-propionylamino)-butyryl]-2,3-dihydro-1H-pyrrolo[2,3-b]pyridine-2-carboxylic acid (2,2,2-trifluoro-ethyl)-amide]
18 | 104 | > 54800 | CCc1ccccc1NC(=O)[C@@H]1Cc2cccnc2N1C(=O)[C@@H](NC(=O)[C@H](C)NC)C(C)C [Example 40, (S)-1-[(S)-3-Methyl-2-((S)-2-methylamino-propionylamino)-butyryl]-2,3-dihydro-1H-pyrrolo[2,3-b]pyridine-2-carboxylic acid (2-ethyl-phenyl)-amide]
19 | 102 | > 54800 | CN[C@@H](C)C(=O)N[C@H](C(=O)N1c2ncccc2C[C@H]1C(=O)Nc1ccc(C(=O)OC)cc1F)C(C)C [Example 49, 3-Fluoro-4-({(S)-1-[(S)-3-methyl-2-((S)-2-methylamino-propionylamino)-butyryl]-2,3-dihydro-1H-pyrrolo[2,3-b]pyridine-2-carbonyl}-amino)-benzoic acid methyl ester]
20 | 54.9 | > 54800 | CN[C@@H](C)C(=O)N[C@H](C(=O)N1c2ncccc2C[C@H]1C(=O)Nc1ccccc1C#N)C(C)C [Example 48, (S)-1-[(S)-3-Methyl-2-((S)-2-methylamino-propionylamino)-butyryl]-2,3-dihydro-1H-pyrrolo[2,3-b]pyridine-2-carboxylic acid (2-cyano-phenyl)-amide]
21 | 4.29 | > 54800 | CN[C@@H](C)C(=O)N[C@H](C(=O)N1c2ncccc2C[C@H]1C(=O)Nc1ccc(OC)cc1F)C(C)C [Example 47, (S)-1-[(S)-3-Methyl-2-((S)-2-methylamino-propionylamino)-butyryl]-2,3-dihydro-1H-pyrrolo[2,3-b]pyridine-2-carboxylic acid (2-fluoro-4-methoxy-phenyl)-amide]
